Earlier results in patent US5866682A (priority 1997, dated 1999).

Test system: α3β2 and α3β4 receptors

Substance: α-conotoxin MII
- binding sites and toxin molecules required to block function: has two binding sites on α3β2 and α3β4 receptors expressed in Xenopus oocytes and only one toxin molecule is required to block function
- block of native nAChRs: blocks native α3β2-containing nAChRs and α3β4 conataining nAChRs
- discrimination between the α3β2 and α3β4 interface: four orders-of-magnitude
